Results on 1 compound are retold here after patent US10517898B2, “Compositions and methods related to hematologic recovery” (The Regents of the University of California, priority 2014, dated 2019).

For this experiment, the system named is PTPσ^−/− BM cells. In words: Transendothelial migration assay (CFCs from migrated cells in lower chamber). Format: cell-based. Conditions: 25 μM EHT1864, 16 hours culture, mouse spleen endothelial cell transwell, CFCs of migrated cells (FIG. 3D). As to the method:
Transendothelial migration assays were performed as follows. VeraVec™ mouse spleen endothelial cells (Angiocrine Bioscience, New York N.Y.) were cultured to confluence in […] pore transwells (Corning Incorporated, Corning N.Y.). Transwells were seeded with 200,000 BM cells in IMDM with 10% FBS, 1% penicillin-streptomycin, 125 ng/mL stem cell factor, 50 ng/mL Flt-3 ligand and 20 ng/mL thrombopoietin with or without 25 μM Rac inhibitor, EHT1864 (R&D Systems, Minneapolis, Minn.). 100 ng/mL SDF-1α (R&D) or media was added to the bottom chamber of the transwell. 16 hours post culture, cells in the bottom chamber were collected and CFCs were set up with the migrated cells.

Turning to `O=c1cc(CN2CCOCC2)occ1OCCCCCSc1ccnc2cc(C(F)(F)F)ccc12` [EHT1864], the “transendothelial migration capacity of PTPσ^−/− cells” value is “completely abrogated”.
